The subject of assay [1] is cultured cerebral cortex neurons. The assay can be described thus: 3H-GABA release, cultured cerebral cortex neurons. The class given is cell-based. The settings on record: Cerebral cortex neuron; inhibition of stimulated 3H-GABA release, mouse cortical neurons, Table 1. The source says:
The compounds of the invention have also been tested for their ability to inhibit GABA release from cultured cerebral cortex neurons in the following test:
^3 H-GABA Release, Cortical Neurons
Background: Neurons which express receptors for excitatory amino acids can be depolarized by such compounds and this depolarization will ultimately lead to a release of transmitter substance from the neurons. Cultured neurons obtained from 15-day-old mouse embryo cortex are mainly GABAergic and express all types of excitatory amino acid receptors. This means that they can be stimulated by high potassium or by the excitatory amino acids, NMDA, AMPA and kainate to release their neurotransmitter GABA.
^3 H-GABA may be used to label the GABA transmitter pool in the neurons and the release of ^3 H-GABA from the neurons may be used as a simple functional model for studies of the effects of excitatory amino acids and their antagonists.
Method: Cerebral cortices of 16-day-old mouse embryos are chopped in 0.4×0.4 mm cubes. The tissue is dissociated by mild trypsinization (0.1% (wt/vol) trypsin, 37° C., 15 min) and subsequently inoculated into poly-L-lysine-coated 3-cm Petri dishes containing a slightly modified DMEM (24.5 mM KCI, 30 mM glucose) supplemented with p-aminobenzoate (7 μM), insulin (100 mU/L) and 10% (vol/vol) horse serum. Cells are maintained in culture for 5-7 days with the addition of the antimitotic agent cytosine arbinoside (40 μM) from day 2 in vitro to prevent glial profileration. For further details and references, see Drejer et al. Exp. Brain Res. 47, 259 (1982).
Release experiments are performed using the model described by Drejer et al. Life Sci. 38, 2077 (1986). Cerebral cortex neurons cultured in Petri dishes (30 mm) are added 100 μM γ-vinyl-GABA one hour before the experiment in order to inhibit degradation of GABA in the neurons. 30 min before the experiment 5 μCi ^3 H-GABA is added to each culture and after this preloading period the cell monolayer at the bottom of the dish is covered with a piece of nylon mesh to protect the cells against mechanical damage and to facilitate dispersion of medium over the cell layer. The preloading medium is removed and the Petri dishes are placed in a superfusion system consisting of a peristaltic pump continously delivering thermostated 37° C. superfusion medium HEPES buffered saline (HBS): 10 mM HEPES, 135 mM NaCl, 5 mM KCI, 0.6 mM MgSO4, 1.0 mM CaCl2 and 6 mM D-glucose; pH 7.4) from a reservoir to the top of the slightly tilted Petri dish. The medium is continously collected from the lower part of the dish and delivered to a fraction collector. Initially, the cells are superfused with HBS for 15 min (flow rate 2 ml/min). Then the cells are stimulated for 30 sec every 4 min by changing the superfusion medium from HBS to a corresponding medium containing […].
Test subtances are dissolved in 50% DMSO, 48% ethanol. The final DMSO and ethanol concentration in the assay must not exceed 0.1%.
The stimulated release of ^3 H-GABA (cpm) are corrected for the mean basal release(cpm) before and after stimulation.
The stimulated release in the presence of antagonists are expressed relative to the stimulated release and the IC50 value for the antagonist is calculated (the concentration (μM) of the test substance which inhibit 50% of the stimulated ^3 H-GABA release).
(§1) The test results obtained by testing the compounds of the invention for their in-vitro AMPA receptor affinity and their ability to inhibit GABA release are presented in the following table: […]

In the next assay the target is AMPA receptor. The assay can be described thus: AMPA receptor binding affinity (in vitro). As to conditions: Table 1.
Text: In Vitro activity (receptor affinity):
as §1

`CN1CCc2c(-c3ccc(S(=O)(=O)N(Cc4ccccc4)Cc4ccccc4)cc3)cc3c(c2C1)NC(=O)C3=NO` [8-methyl-5-(4-(N,N-dibenzylsulphamoyl)-phenyl)-6,7,8,9-tetrahydro-1H-pyrrolo[3,2-h]-isoquinoline-2,3-dione-3-oxime]: the IC50 – broadly, the concentration needed to halve the response being measured – is 1900 nM in assay [1] and 540 nM at AMPA receptor.
Regarding `CN1CCc2c(-c3ccc(S(=O)(=O)N4CCN(c5ccc(Cl)cc5)CC4)cc3)cc3c(c2C1)NC(=O)C3=NO` [8-methyl-5-(4-(4-(4-chlorophenyl)piperazinosulfonyl)-phenyl)-6,7,8,9-tetrahydro-1H-pyrrolo[3,2-h]-isoquinoline-2,3-dione-3-oxime], the 50% inhibitory concentration (IC50) was determined as 877 nM in assay [1] and 68 nM on AMPA receptor.
The matching figures for `CN1CCc2c(-c3ccc(S(=O)(=O)NCCO)cc3)cc3c(c2C1)NC(=O)C3=NO` [8-methyl-5-(4-(N-(2-hydroxyethyl)sulphamoyl)-phenyl)-6,7,8,9-tetrahydro-1H-pyrrolo[3,2-h]-isoquinoline-2,3-dione-3-oxime]: 330 nM and 40 nM.
The matching figures for `CCN1Cc2c(-c3ccc(S(=O)(=O)N4CCOCC4)cc3)cc3c(c2C1)NC(=O)C3=NO` [7-ethyl-5-(4-(morpholinosulfonyl)phenyl)-1,6,7,8-tetrahydrobenzo[1,2-b:3,4-c]dipyrrole-2,3-dione-3-oxime]: 500 nM and 140 nM.
Regarding `CN1CCc2c(-c3ccc(S(=O)(=O)N(C)C)cc3)cc3c(c2C1)NC(=O)C3=NOC(C)(C)C` [8-methyl-5-(4-(N,N-dimethylsulphamoyl)-phenyl)-6,7,8,9-tetrahydro-1H-pyrrolo[3,2-h]-isoquinoline-2,3-dione-3-O-t-butyloxime], the values for the IC50 (in assay [1]; on AMPA receptor) were 5500 nM and 470 nM, respectively.
On the same counts, the results for `CN1CCc2c(c(-c3ccc(S(=O)(=O)N4CCOCC4)cc3)cc3c2NC(=O)C3=NO)C1` [7-methyl-5-(4-(morpholinosulfonyl)phenyl)-6,7,8,9-tetrahydro-1H-pyrrolo[2,3-f]isoquinoline-2,3-dione-3-oxime] are 250 nM and 110 nM.
On the same counts, the results for `CN1CCc2c(-c3ccc(C(=O)N(C)C)cc3)cc3c(c2C1)NC(=O)C3=NO` [8-methyl-5-(4-(N,N-dimethylcarbamoyl)-phenyl)-6,7,8,9-tetrahydro-1H-pyrrolo[3,2-h]-isoquinoline-2,3-dione-3-oxime] are 190 nM and 140 nM.
Take `CN1CCc2c(-c3ccc(S(=O)(=O)N4CCOCC4)cc3)cc3c(c2C1)NC(=O)C3=O` [8-methyl-5-(4-(morpholinosulfonyl)-phenyl)-6,7,8,9-tetrahydro-1H-pyrrolo[3,2-h]-isoquinoline-2,3-dione]: the results for the concentration for half-maximal inhibition (IC50) (in assay [1]; on AMPA receptor) were 2160 nM and 820 nM, respectively.
Take `CCOC(=O)CNS(=O)(=O)c1ccc(-c2cc3c(c4c2CCN(C)C4)NC(=O)C3=NO)cc1` [8-methyl-5-(4-(N-(ethoxycarbonylmethyl)-sulphamoyl)phenyl)-6,7,8,9-tetrahydro-1H-pyrrolo[3,2-h]isoquinoline-2,3-dione-3-oxime]: the half-inhibitory concentration (IC50) in assay [1] worked out at 340 nM; on AMPA receptor, 34 nM.
On the same counts, the results for `CON=C1C(=O)Nc2c1cc(-c1ccc(S(=O)(=O)N3CCOCC3)cc1)c1c2CCN(C)C1` [7-methyl-5-(4-(morpholinosulfonyl)phenyl)-6,7,8,9-tetrahydro-1H-pyrrolo[2,3-f]isoquinoline-2,3-dione-3-O-methyloxime] are 1600 nM and 220 nM.
The matching figures for `CN(C)CCN(C)S(=O)(=O)c1ccc(-c2cc3c(c4c2CCN(C)C4)NC(=O)C3=NO)cc1` [8-methyl-5-(4-(N-methyl-N-(2-(N,N-dimethylamino)-ethyl)sulphamoyl)-phenyl)-6,7,8,9-tetrahydro-1H-pyrrolo[3,2-h]-isoquinoline-2,3-dione-3-oxime]: 310 nM and 190 nM.
Take `CN1CCc2c(-c3ccc(S(=O)(=O)Nc4ccccc4)cc3)cc3c(c2C1)NC(=O)C3=NO` [8-methyl-5-(4-(N-phenylsulphamoyl)-phenyl)-6,7,8,9-tetrahydro-1H-pyrrolo[3,2-h]-isoquinoline-2,3-dione-3-oxime]: the figures for the half-maximal inhibitory concentration (IC50) (in assay [1]; on AMPA receptor) were 380 nM and 66 nM, respectively.
Consider `CCN(CC)S(=O)(=O)c1ccc(-c2cc3c(c4c2CCN(C)C4)NC(=O)C3=NO)cc1` [8-methyl-5-(4-(N,N-diethylsulphamoyl)-phenyl)-6,7,8,9-tetrahydro-1H-pyrrolo[3,2-h]-isoquinoline-2,3-dione-3-oxime], for which the half-maximal inhibitory concentration (IC50) in assay [1] amounted to 160 nM; at AMPA receptor it was 18 nM.
The matching figures for `CON=C1C(=O)Nc2c1cc(-c1ccc(S(=O)(=O)N(C)C)cc1)c1c2CN(C)CC1` [8-methyl-5-(4-(N,N-dimethylsulphamoyl)-phenyl)-6,7,8,9-tetrahydro-1H-pyrrolo[3,2-h]-isoquinoline-2,3-dione-3-O-methyloxime]: 1700 nM and 200 nM.
As for `CN1CCc2c(-c3ccc(S(=O)(=O)N4CCCCC4)cc3)cc3c(c2C1)NC(=O)C3=NO` [8-methyl-5-(4-(piperidinosulfonyl)-phenyl)-6,7,8,9-tetrahydro-1H-pyrrolo[3,2-h]-isoquinoline-2,3-dione-3-oxime], the IC50 in assay [1] was 240 nM; at AMPA receptor, 27 nM.
The matching figures for `CN1CCc2c(-c3ccc(S(=O)(=O)N4CCN(Cc5ccc6c(c5)OCO6)CC4)cc3)cc3c(c2C1)NC(=O)C3=NO` [8-methyl-5-(4-(4-(3,4-methylenedioxybenzyl)-piperazinosulfonyl)phenyl)-6,7,8,9-tetrahydro-1H-pyrrolo[3,2-h]-isoquinoline-2,3-dione-3-oxime]: 500 nM and 130 nM.
The matching figures for `CCN1Cc2c(-c3ccc(S(=O)(=O)N(C)C)cc3)cc3c(c2C1)NC(=O)C3=NO` [7-ethyl-5-(4-(N,N-dimethylsulphamoyl)phenyl)-1,6,7,8-tetrahydrobenzo[1,2-b:3,4-c]dipyrrole-2,3-dione-3-oxime]: 4500 nM and 1600 nM.
On the same counts, the results for `CCOC(=O)c1ccc(-c2cc3c(c4c2CCN(C)C4)NC(=O)C3=NO)cc1` [8-methyl-5-(4-(ethoxycarbonyl)phenyl)-6,7,8,9 tetrahydro-1H-pyrrolo[3,2-h]-isoquinoline-2,3-dione-3-oxime] are 3700 nM and 100 nM.
`CN1CCc2c(-c3ccc(S(N)(=O)=O)cc3)cc3c(c2C1)NC(=O)C3=NO` [8-methyl-5-(4-(sulphamoyl)phenyl)-6,7,8,9-tetrahydro-1H-pyrrolo[3,2-h]isoquinoline-2,3-dione-3-oxime]: the values for the IC50 (in assay [1]; on AMPA receptor) were 270 nM and 25 nM, respectively.
On the same counts, the results for `CN1CCc2c(-c3ccc(S(=O)(=O)NC(C)(C)C)cc3)cc3c(c2C1)NC(=O)C3=NO` [8-methyl-5-(4-(N-t-butylsulphamoyl)-phenyl)-6,7,8,9-tetrahydro-1H-pyrrolo[3,2-h]-isoquinoline-2,3-dione-3-oxime] are 240 nM and 30 nM.
On the same counts, the results for `CN1CCc2c(-c3ccc(S(=O)(=O)N4CCN(CCO)CC4)cc3)cc3c(c2C1)NC(=O)C3=NO` [8-methyl-5-(4-(4-(2-hydroxyethyl)piperazinosulfonyl)-phenyl)-6,7,8,9-tetrahydro-1H-pyrrolo[3,2-h]-isoquinoline-2,3-dione-3-oxime] are 100 nM and 19 nM.
The matching figures for `CCN(CC)CCN(CCN(CC)CC)S(=O)(=O)c1ccc(-c2cc3c(c4c2CCN(C)C4)NC(=O)C3=NO)cc1` [8-methyl-5-(4-(N,N-di(2-(N,N-diethylamino)ethyl)-sulphamoyl)-phenyl)-6,7,8,9-tetrahydro-1H-pyrrolo[3,2-h]-isoquinoline-2,3-dione-3-oxime]: 450 nM and 38 nM.
`CN1CCc2c(-c3ccc(S(=O)(=O)N4CCOCC4)cc3)cc3c(c2C1)NC(=O)C3=NO` [8-methyl-5-(4-(morpholinosulfonyl)phenyl)-6,7,8,9-tetrahydro-1H-pyrrolo[3,2-h]-isoquinoline-2,3-dione-3-oxime]: the results for the concentration for half-maximal inhibition (IC50) (in assay [1]; at AMPA receptor) were 30 nM and 40 nM, respectively.

The record behind these values is US5801174A, “Fused indole and quinoxaline derivatives, their preparation and use” (Neurosearch A/S, priority 1994, dated 1998).
